Measured values as given in patent publication US9650674B2, “Nucleic acid probes and methods of using the same” (Board of Trustees University of Arkansas, priority 2012, dated 2017).
{Cy5.5} = Cy5.5 cyanine dye label

How the values were obtained:
[1] = system: wild-type (WT) mouse kidney cryosections; assay: Endonuclease activity ex vivo in kidney cryosections; conditions: 5 μM probe, EAA buffer, 37° C.
Description: Next it was examined whether AB259.3 probe can be used for measurement of endonuclease activity in tissue sections. Kidneys were used because they are known for high activity of DNase I (Ca/Mg-dependent endonuclease). Freshly prepared 10 μm thick cryosections of wild-type (WT) mouse kidney were exposed with 5 μM AB259.3 probe in presence of EAA buffer at 37° C. and time-lapse imaged for 10 min with 1-min intervals.
Specimens of kidney, liver, spleen and testis tissues were removed from euthanized mice, immersed in OCT medium, rapidly frozen by Fisher Freeze-it and kept on dry ice for no longer than 1 hour prior slicing. Tissue cryosections (8-μm thick) were prepared using the Microm HM 505E cryotome, placed to the Fisher Plus slides and immediately exposed with 0.5 μM AB259.3 probe diluted in EAA buffer. In control samples, applied probe contained EAA buffer supplemented with 200 μM EDTA. Images were taken in 628/40-692/40 spectrum every 30 sec for 10 min in 10 random XY coordinates. Three sections from each specimen were analyzed separately. Maximal velocity of increasing fluorescence was averaged for each section.

DNase I = biological target: T1, DNase I (Homo sapiens, UniProt P24855); assay: Kinetic fluorescence of probes exposed to DNase I in vitro; assay type: biochemical
T1 construct: purchased Sigma (St. Louis, Mo.)
T1 sequence (P24855 23-282): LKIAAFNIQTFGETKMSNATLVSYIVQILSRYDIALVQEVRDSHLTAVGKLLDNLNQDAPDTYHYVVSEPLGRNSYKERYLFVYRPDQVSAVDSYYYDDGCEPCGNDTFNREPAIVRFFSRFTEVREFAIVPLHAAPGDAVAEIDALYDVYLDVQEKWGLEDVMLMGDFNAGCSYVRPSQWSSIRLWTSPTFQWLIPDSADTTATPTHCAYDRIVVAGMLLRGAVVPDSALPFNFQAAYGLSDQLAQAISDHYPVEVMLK
Description: It was hypothesized that exposure of the probes to endonucleases would lead to DNA cleavage and dissociation of protruded strand from the hairpin (FIG. 2A). To assess which of the proposed probes is the best to measure endonuclease activity, the probes (0.5 μM) were exposed with recombinant human DNase I (1 μg/ml) and the kinetic fluorescence curves were recorded. Twenty min into the reaction, AB259.1, AB259.3 and AB259.5 gained 1.75-, 2.6- and 1.62-fold fluorescence, respectively, compared to the baseline (FIG. 2B). At 20-25 min, AB259.1 and AB259.3 reached the plateaus. […] Therefore, AB259.3 was chosen for further experiments.
To detect specificity of the assay to DNase I that is a Ca/Mg-dependent endonuclease, AB259.3 probe was tested with 1 μg/ml DNase I in the presence of Ca++ and Mg++ (EAA buffer), in absence of the cations (deionized water), or in excess of EDTA (200 μM). […] Finally, it was tested whether AB259.3 probe will detect inhibition of DNase I activity by DNase I inhibitors such as ZnCl2 and Zn-diisopropyl salicylate (Zn-DIPS).
(§1) All cell-free experiments were performed using the Bio-Tek Synergy 5 fluorescent plate reader. Before experiments, optimal excitation and emission wavelengths were determined. For this, excitation and emission were scanned in the ranges of 600-680 nm and 690-705 nm, respectively. The optimal excitation/emission was determined to be 665/703 nm. All kinetic and endpoint measurements were done in a total volume of 100 μl at 37° C. Unless stated otherwise, DNA substrate was used in final concentration 0.5 μM reconstituted in endonuclease activity assay (EAA) buffer (2 mM CaCl2, 5 mM MgCl2, 10 mM Tris-HCl, pH 7.4) in a 96-well plate. After measurement of starting fluorescence, DNase I or tested material (diluted 1:20 urine or 1:100 serum) were added to the reconstituted probe, rapidly mixed and fluorescence was monitored for up to 60 min with 30-sec intervals. In some instances, EDTA (final concentration 200 μM) or NaOH (50 mM) was added to terminate the reaction. For the experiments that involved assessment of fluorescence after DNA denaturing, probes were tested in Cepheid real-time PCR system using Cy5 setting (Sunnyvale, Calif.).

[2] = Baseline fluorescence of hairpin DNA probes; assay type: physicochemical; conditions: correlated with length of protruded DNA end; FIG. 1B
From the text: It was impossible to determine if the background fluorescence was attributed to the probe or it originated from a partial degradation of the probe. Consequently, the NIRF probes were designed as hairpins to allow testing the integrity of DNA by its denaturing followed by reannealing. The use of hairpin also allows easy measurement of the maximum fluorescence of the probe. The distance between two fluorophores varied by changing of protruding DNA strand length from +0 (AB259.1 probe) to +5 (AB259.3 probe) or to +10 (AB259.5 probe) as shown in FIG. 1A. The baseline fluorescence of probe AB259.1 was 30% higher than negative control without a probe (FIG. 1B).
as §1

## [Cy5.5]AACACTCCGATGAGTGTAGAATGT[Cy5.5] (DNA, 5' {Cy5.5}, 3' {Cy5.5}, backbone not given here) [AB259.3, hairpin DNA probe with Cy5.5 at both ends, protruding strand +5]
[1]
  time to plateau of fluorescence: 2 to 3 min
[1]; 10 min, FIGS. 5A and 5B
  increase of Cy5.5 fluorescence compared to starting point: 2.5 times
DNase I; different concentrations of DNase I, FIG. 2C
  dependence of kinetic reaction on DNase I concentration: linear correlation between mean velocity (Vm) of the kinetic reaction and DNase I concentration
DNase I; probe 0.5 μM, DNase I 1 μg/ml, twenty min into the reaction, FIG. 2B
  gain of fluorescence compared to baseline: 2.6 fold
[2]
  baseline fluorescence (in words): much higher levels of the baseline fluorescence
